From US6716582B2 (priority 2000, dated 2004) come the findings set out here.

Like-named read-outs stand apart in the source and are kept apart here.

Data set [1] deals with SoxR/S regulon luxCDABE gene fusions. As to the kind of experiment: SoxR/S regulon lux fusions: stress response in liquid LB. In kind it is cell-based, E. coli. As to conditions: each of four strains; 1000-16 μg/ml, all seven concentrations. As for the experimental part: Like the SOS and heat shock regulon fusions, these had basal light production greater than the promoterless parental plasmid indicating the presence of a promoter. Responsiveness of four of these strains to a known inducer of the SoxR/S regulon, methyl viologen, was tested at 1000, 500, 250, 125, 62, 31 and 16 μg/ml. […] Table 8 gives the response ratio for 250 μg/ml at 120 minutes of treatment for the four tested strains. Here again, the biologically appropriate response was observed.

Data set [2] concerns OxyR regulon ahpC-luxCDABE gene fusions. Conditions: three ahpC-lux strains; 0.016-0.00025%. The procedure:
(§1) To test the stress responses, one or two single colonies of each selected strain were used to inoculate 5.0 ml of LB medium containing 150 μg/ml of ampicillin. These cultures were grown overnight at 37° C. then diluted by adding 50 μl or 100 μl of the overnight culture into 10.0 ml of fresh LB medium (without ampicillin) and grown with agitation at 37° C. until the culture was in exponential phase with readings on a Klett-Summerson colorimeter containing the red filter of between 10 and 40. These actively growing cultures were immediately used to initiate a stress response experiment by adding 50 μl of cultures to 50 μl of LB medium containing various concentrations of chemical in the wells a 96 well luminometer plate. This division of the actively growing culture at the time of chemical addition ensured identical populations were present when the stress was imposed. Light production was measured in a Dynex ML3000 luminometer at 37° C. The dimensionless units of light production, relative light units (RLU), are obtained by comparison with the light reading from an internal light-emitting diode.
To test if these strains would report on activation of the OxyR-controlled oxidative stress response, each was treated with hydrogen peroxide at 0.016, 0.008, 0.004, 0.002, 0.001, 0.0005, 0.00025%.

The subject of data set [3] is ahpC-luxCDABE gene fusions in pcnB- host. Conditions: both ahpC-lux fusions in pcnB- host; 0.004-0.00006%, all seven concentrations. As for the experimental part:
as §1

Data set [4] concerns heat shock regulon luxCDABE gene fusions. Description: heat shock regulon lux fusions: stress response in liquid LB. In kind it is cell-based, E. coli. As to conditions: each of the six heat shock fusion strains; at least two of 5, 4, 3, 2 (v/v)% ethanol. As for the experimental part:
as §1

The subject of data set [5] is clpB-luxCDABE gene fusion. As to conditions: 38 min. An excerpt:
Plasmid DNA was isolated from lux-a.pk043.d3, digested with restriction enzyme XmaI, and ligated with T4 DNA ligase. The ligation reaction was used to transform E. coli strain DPD 1675 by electroporation. Transformants were selected by ampicillin resistance. […] The response to ethanol treatment of two of these light producing transformants that putatively contain inverted chromosomal inserts, of lux-a.pk054.c3 (DPD2243) that contains a plasmid with the clpB promoter operably linked to the luxCDABE reporter and of the original lux-a.pk043.d3 were compared. Actively growing cultures at 37° C. in LB medium were treated with 4% ethanol and light production was quantitated at 37° C. using a microplate luminometer (Dynex ML3000). Table 17 summarizes the average bioluminescence of duplicate samples at 38 min after treatment.

Data set [6] concerns SOS regulon luxCDABE gene fusions. Description: SOS regulon lux fusions: stress response in liquid LB. In kind it is cell-based, E. coli. As for the experimental part:
as §1
The ability of these promoter-luxCDABE fusions to report activation of the SOS stress response was tested using nalidixic acid, a known, potent chemical inducer. The final concentrations of nalidixic acid were 1, 5, 25, and 125 μg/ml for all but strain DPD2293, which was tested at 80, 40, 20, 10, 5, 2.5, and 1.25 μg/ml.
Specificity of responses was tested by measuring the effect of ethanol on these SOS regulon gene fusions.

For a further data set, the system named is yebF-luxCDABE fusion. As to the kind of experiment: inverted yebF-luxCDABE fusion induction by DNA damaging agents. In kind it is cell-based, E. coli. Conditions: yebF-luxCDABE fusion; mitomycin C, FIG. 2. An excerpt:
In this case, a divergent promoter to the purT gene was present in the chromosomal fragment and strains containing the backward yebF fusion produced light. Following isolation of plasmid DNA, XmaI digestion that releases the insert DNA from the vector, religation and transformation, 10% of the transformants produced light. […] The orientation of the inserted segment to yield a fusion of yebF to the luxCDABE operon was confirmed by DNA sequence analysis.
To test inverting of a chromosomal segment in a plasmid containing divergent promoters, the backward fusion to yebF was chosen. […] In this case, a divergent promoter to the purT gene was present in the chromosomal fragment and strains containing the backward yebF fusion produced light. Following XmaI digestion, religation and transformation, 10% of the transformants produced light. […] This was verified by DNA sequence analysis. Thus, inverting chromosomal segments containing divergent promoters is possible and is facilitated if the two promoters can be distinguished by their biological activity.

Data set [7] concerns luxCDABE gene fusions to MMC array genes. Description: Lux-A Collection fusions tested for MMC induction. In kind it is cell-based, E. coli. The procedure: The Lux-A Collection of reporter gene fusions was examined for presence of fusions to the genes in Table 11. […] Each of these was tested for induction by MMC at several doses over a time course of 100 minutes.
As expected, the expression of the known SOS genes was elevated; however the expression of several was elevated less than 2-fold (Table 12) and as such were within a large group of 792 genes the expression of which was elevated by 20% or more. Most of these are likely due to artifacts in the array data rather than to actual biologically relevant responses. To test if strains carrying luxCDABE gene fusions would yield the expected positive result, the three gene fusions that were available in the Lux-A Collection of reporter gene fusions were tested for mitomycin C responses.

For data set [8], the system named is E. coli strain MG1655 gene expression. Description: DNA microarray experiment with mitomycin C. In kind it is cell-based. Conditions: MMC 250 ng/ml, 40 min. The procedure:
The E. coli strain MG1655 (rph-1) was used. Cultures grown in LB at 37° C. overnight were diluted 1 to 250 into fresh LB and grown at 37° C. with aeration. Each subculture was split into two 100 ml cultures when the reading on a Klett-Sammerson calorimeter with the red filter reads 20 Klett units. MMC (Sigma, dissolved in ddH2O) at a final concentration of 250 ng/ml, a sub-lethal dose, was added to one of the split cultures. The other culture was a no addition control. Incubation at 37° C. continued for another 40 minutes, then cells were collected for preparing total RNA. The MMC treated culture and its control reached 60 and 55 Klett units, respectively after 40 minute treatment.
Total RNA purification, first-strand cDNA labeling, preparation of the E. coli whole genome high-density microarray chips, hybridization and data analysis were done as previously described (Wei et al. (2001) J. Bacteriol. 183: 545-556). Both cy3 and cy5 were used in probe labeling, and the hybridization experiments were repeated by swapping the fluorescence cy dyes between each pair of MMC treated sample and its blank control.
Ratios of expression in the mitomycin C treated samples vs. controls were calculated for all genes in the DNA array. Ratios greater than or equal to 2 were considered induced genes, while those with ratios less than 2 fold were considered uninduced. The known SOS genes (Kim et al., (1997) Proc Natl Acad Sci USA Dec. 9, 1997; 94(25):13792-7; Lomba et al., (1997) FEMS Microbiol Lett 156:119-122; Walker, G. C. (1996). In Escherichia coli and Salmonella: Cellular and Molecular Biology. ASM Press pp.1400-1416) fell into both the induced (Table 11) and uninduced classes (Table 12).

As for `C[n+]1ccc(-c2cc[n+](C)cc2)cc1` [Methyl viologen, methyl viologen], in data set [1], the “bioluminescence vs untreated control” value is listed as “induced increased bioluminescence”.
On to `OO` [H2O2, hydrogen peroxide], for which the bioluminescence induction result is “minimally induced” in data set [2] and “dramatically induced increased bioluminescence” in data set [3].
Take `CCO` [Ethanol]: the “bioluminescence vs untreated control” value in data set [4] is “increased bioluminescence”; in [6] (SOS regulon fusions, 5, 4, or 3% (v/v) ethanol) it was “little to no increased bioluminescence”. The “Light production in LB + 4% ethanol” value in data set [5] (Inverted lux-a.pk043.d3, second isolate) was 29.63 RLU; in data set [5] (inverted lux-a.pk043.d3, first isolate) it was 8.17 RLU. Moreover, the response ratio in data set [6] (DPD2249 dinP-lux, 3% ethanol, 40 min) is 0.80.
Turning to `CO[C@@]12[C@H](COC(N)=O)C3=C(C(=O)C(C)=C(N)C3=O)N1C[C@@H]1N[C@@H]12` [MMC, mitomycin C], the induction of bioluminescence result in the data set on yebF-luxCDABE fusion is given as “induction by mitomycin C was demonstrated”. Moreover, in [7] (four fusions to genes not previously known MMC inducible), the gene expression response result was “no evidence of increased gene expression”. In [7] (four fusions to known SOS genes of Table 11, several doses, 100 min time course), the induction response result is recorded as “induction of increased bioluminescence”. Moreover, in data set [7] (three fusions to SOS genes of Table 12), the bioluminescence response result was “induced increased bioluminescence”. Further, the Fold induction/array expt stood at 3.3 in data set [8] (b0531); 2.2 in [8] (b0571 (ylcA)); 2.5 in data set [8] (b1228); 3.3 in data set [8] (b1847 (yebF)); 2.0 in data set [8] (b2559); 2.3 in data set [8] (b2940). In addition, the Fold induction/array expt was determined as 2.0 in data set [8] (b3199); 2.9 in data set [8] (cspA); 2.1 in [8] (dniR); 2.2 in [8] (exbD); 6.7 in data set [8] (hslS); 4.0 in data set [8] (hslT). Moreover, the Fold induction/array expt in [8] (infA) was determined as 2.3; in data set [8] (insA_4), 2.1; in [8] (insB_1) it was 2.1; in [8] (insB_2), 2.2; in [8] (mioC) it was 2.1; in data set [8] (secG), 2.2. The Fold induction/array expt in data set [8] (trkH) is reported as 2.1; in data set [8] (xseA), 2.0. Further, the Fold induction/array experiment in data set [8] (b1848 (yebG)) is given as 5.8; in data set [8] (dinB (dinP)), 2.0; in [8] (dinD), 2.2; in data set [8] (dinF), 1.8; in [8] (dinG), 1.4; in data set [8] (dinI), 6.7. Further, the Fold induction/array experiment in data set [8] (himA) is reported as 1.3; in data set [8] (lexA), 3.6; in data set [8] (polB (dinA)) it was 1.2; in data set [8] (recA), 3.0; in [8] (recN), 8.3; in data set [8] (ruvA) it was 2.0. In addition, the Fold induction/array experiment in data set [8] (ruvB) is 1.5; in data set [8] (sulA), 5.8; in data set [8] (umuC), 2.1; in data set [8] (umuD), 1.2; in data set [8] (uvrA), 2.3; in data set [8] (uvrB) it was 2.1. Moreover, the Fold induction/array experiment in data set [8] (uvrD) is listed as 1.4.
